We go through 1 cell line from the supplement of paper PMC10307832.

Test in all cases: relative viability (nuclei count vs DMSO), 5 days (fraction); higher = more cells survive
Compound in the test “Tanzisertib + Pictilisib”: O[C@H]1CC[C@H](Nc2ncc3nc(Nc4c(F)cc(F)cc4F)n([C@H]4CCOC4)c3n2)CC1 [Tanzisertib] + CS(=O)(=O)N1CCN(Cc2cc3nc(-c4cccc5[nH]ncc45)nc(N4CCOCC4)c3s2)CC1 [Pictilisib] (partner 1 µM)
In short, it runs like this:
(§1)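 Nuclei were stained with Hoechst during a one-step fixation (final 0.05% Triton X-100, 1% formaldehyde, 1 ug/ml Hoechst) carried out 5 days after dosing, then counted on 4× images. The cells, lung cancer lines in 1536-well plates, had been dosed by pin tool the day after seeding with one drug alone or a fixed anchor-drug dose plus five library-drug doses (not always all listed) in √10 steps. Relative viability is the nuclei count in treated wells divided by that in vehicle wells, and each value is the median of duplicate plates.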

Compound in test [1]: C[C@@H](N)c1ccc(C(=O)Nc2ccnc3[nH]ccc23)cc1 + CC(=O)c1c(C)c2cnc(Nc3ccc(N4CCNCC4)cn3)nc2n(C2CCCC2)c1=O [Palbociclib] (partner 0.5 µM)
In short, it runs like this:
as §1

Compound in test [2]: C[C@@H](N)c1ccc(C(=O)Nc2ccnc3[nH]ccc23)cc1 + Nc1ncn([C@H]2C[C@H](O)[C@@H](CO)O2)c(=O)n1 [Decitabine] (partner 2 µM)
In short, it runs like this: as §1

Compound in test [3]: C1CNCCC1C2=CC(=NN2)C3=CC=NC=C3 + CS(=O)(=O)N1CCN(Cc2cc3nc(-c4cccc5[nH]ncc45)nc(N4CCOCC4)c3s2)CC1 [Pictilisib] (partner 1 µM)
In short, it runs like this: as §1

Turning to UMC-11, the relative viability in the test with Tanzisertib + Pictilisib (first compound 0.08 µM) is 0.874; with Tanzisertib + Pictilisib (first compound 0.253 µM), 0.85; in the test with Tanzisertib + Pictilisib (first compound 0.8 µM), 0.909; with Tanzisertib + Pictilisib (first compound 2.53 µM), 0.798; in the test with Tanzisertib + Pictilisib (first compound 8 µM) it was 0.711; in test [1] (first compound 0.1265 µM) it was 0.334. The relative viability in test [1] (first compound 0.4 µM) turned out to be 0.306; in test [1] (first compound 1.265 µM) it was 0.29; in test [1] (first compound 4 µM), 0.318; in test [2] (first compound 0.1265 µM), 0.608; in test [2] (first compound 0.4 µM), 0.604; in test [2] (first compound 1.265 µM) it was 0.481. In addition, the relative viability in test [2] (first compound 4 µM) turned out to be 0.324; in test [3] (first compound 0.08 µM), 0.698; in test [3] (first compound 0.8 µM), 1.16; in test [3] (first compound 2.53 µM), 0.97; in test [3] (first compound 8 µM), 0.822.
